Data taken from article PMC8427442 (Frontiers in Pharmacology, 2021).
Values joined by “and” are separate entries in the source; they are usually repeats but may differ in a detail not shown here. Identical values can stand only once.

How the values were obtained:
IL-6, IL-1β, IL-8 mRNA = experiment: Proinflammatory gene mRNA by RT-PCR in LPS-stimulated A549 cells; type: cell-based, human; settings: 20 µM; for potency in reducing the levels of the four proinflammatory factors (TNF-α, IL-6, IL-1β, IL-8), compared to UJ: LPS-stimulated A549 cells
SARS-CoV-2 3CLpro = SARS-CoV-2 3CLpro (Severe acute respiratory syndrome coronavirus 2, UniProt P0DTD1); experiment: Protease activity assay with IQF peptide substrate, dose-response; type: biochemical; settings: for IC50: IC50 against SARS-CoV-2 3CLpro, 0.125 µM 3CLpro, 1 h preincubation at 37°C, 1.25 µM IQF peptide substrate, 3 h, N = 3, mean ± SEM; for relative SARS-CoV-2 3CLpro activity (down from 100%): compound at 12.5 µM, data not shown
SARS-CoV 3CLpro = SARS-CoV 3CLpro (Severe acute respiratory syndrome coronavirus, UniProt P0C6X7); type: biochemical
in vitro = settings: African green monkey, half-maximal cytotoxic concentration (CC50)
SARS-CoV-2 = experiment: Plaque assay in SARS-CoV-2-infected Vero E6 cells; type: cell-based
TNF-α = TNF-α protein level by western blot in LPS-stimulated A549 cells; type: cell-based, human; settings: 20 µM, 1 h before 10 μg/ml LPS, 24 h
Text: For western blot analysis, an equal amount of the samples were resolved by SDS-PAGE, followed by transfer to PVDF membranes, following the protocol published previously ([Chiang et al., 2020]). Antibodies against TNF-α (GTX110520) and β-actin (GTX109639) were purchased from GeneTex, Taiwan. HRP-conjugated secondary antibodies were from Jackson ImmunoResearch Laboratories, Inc., United States. WesternBright® ECL kits were used for protein visualization (Advansta Inc., United States). Levels of protein expression were quantified in Fiji ([Schindelin et al., 2012]).
Human alveolar basal epithelial A549 cells have been used to investigate several lung diseases at the cellular level, including endotoxin-induced acute pneumonia ([Zhang J. et al., 2020]). To evaluate the anti-inflammatory effect of UJ, A549 cells were induced with lipopolysaccharide (LPS) for 24 h with or without treatment with UJ. Dexamethasone (Dex), an anti-inflammatory agent ([Chen et al., 2021]), was included as a positive control. […] In addition, the expression levels of proinflammatory genes, including interleukin 1β (IL-1β), IL-6 and IL-8 increased by 1.5- to 2-fold in LPS-stimulated A549 cells, compared with the control group (Figures 4B–D). […] Compared to the positive control (Dex at 5 µM), UJ treatment at 20 µM gave rise to a greater decrease in the TNF-α protein level and IL-6 and IL-8 mRNA. […]

[1] = 1 h before 10 μg/ml LPS, 24 h, A549 cells

Compound | potency in reducing the levels of the four proinflammatory factors (TNF-α, IL-6, IL-1β, IL-8), compared to UJ (IL-6, IL-1β, IL-8 mRNA) | IC50 (SARS-CoV-2 3CLpro) | relative SARS-CoV-2 3CLpro activity (down from 100%) (SARS-CoV-2 3CLpro) | relative SARS-CoV 3CLpro activity (down from 100%) (SARS-CoV 3CLpro) | further results
COc1c(-c2ccc(O)cc2)oc2cc(O)cc(O)c2c1=O [Ikae, isokaempferide] | relatively moderate potency | > 20 µM and 40.2 µM | 60–70% | 60–70% | 
C=C1CCCC(C)(C)[C@@H]1Cc1c(O)cc2oc(-c3ccc(O)c(O)c3)cc(=O)c2c1O [UJ, ugonin J] |  | 0.94 µM and ~0.94 µM | about 15% | about 15% | CC50 at 48 h (in vitro): ~783 µM; EC50 (SARS-CoV-2; Severe acute respiratory syndrome coronavirus 2, Vero C1008, Vero E6 cells, 100 PFU, 1 h pretreatment, 3 days, N = 3, mean ± SEM, read-out: half-maximal effective concentration (EC50) against SARS-CoV-2 infection): ~2.38 µM; prevention of SARS-CoV-2 infection (SARS-CoV-2; pretreatment at 10 µM, Vero E6 cells, plaque assay): near complete prevention; downregulation of IL-1β mRNA expression level (IL-6, IL-1β, IL-8 mRNA; [1]): more than 1 fold; downregulation of IL-6 mRNA expression level (IL-6, IL-1β, IL-8 mRNA; [1]): more than 1 fold; downregulation of IL-8 mRNA expression level (IL-6, IL-1β, IL-8 mRNA; [1]): more than 1 fold; reduction of TNF-α protein expression level (TNF-α): more than 2 fold
O=c1c(O)c(-c2ccc(O)cc2)oc2cc(O)cc(O)c12 [Kae, kaempferol] | relatively moderate potency | > 20 µM and 21.7 µM | 60–70% | 60–70% | 
CCC(CC)COC(=O)[C@H](C)N[P@](=O)(OC[C@H]1O[C@@](C#N)(c2ccc3c(N)ncnn23)[C@H](O)[C@@H]1O)Oc1ccccc1 [Rem, Remdesivir] |  |  |  |  | inhibition at 2 µM (SARS-CoV-2; Severe acute respiratory syndrome coronavirus 2, Vero C1008, 2 µM, Vero E6 cells, plaque assay, read-out: inhibition of SARS-CoV-2 infection): ~95%
O=c1cc(-c2ccc(O)c(O)c2)oc2cc(O)cc(O)c12 [Lu, luteolin] |  | > 20 µM and 20.5 µM |  |  | 
